The values below come from patent US20040087642A1, “Methods of using and compositions comprising a JNK inhibitor for the treatment, prevention, management and/or modification of pain” (priority 2002, published 2004).

Data set [1] in a line: Solubility in aqueous media. It counts as physicochemical.
In data set [2] the test system is rat ventral mesencephalan dopaminergic neurons. The experiment in a line: [3H]Dopamine Cell Culture Assay (6-OHDA neurotoxicity). It counts as cell-based. Particulars: 6-OHDA 30 μM, uptake 22 hrs after exposure. The method, then:
Cultures of dopaminergic neurons were prepared according to a modification of the procedure described by Raymon and Leslie (J. Neurochem. 62:1015-1024, 1994). Time-mated pregnant rats were sacrificed on embyronic day 14-15 (crown rump length 11-12 mm) and the embryos removed by cesarean section. The ventral mesencephalon, containing the dopaminergic neurons, was dissected from each embryo. Tissue pieces from approximately 48 embryos were pooled and dissociated both enzymatically and mechanically. An aliquot from the resulting cell suspension was counted and the cells were plated in high glucose DMEM/F12 culture medium with 10% fetal bovine serum at a density of 1×10^5 cells/well of a Biocoat poly-D-lysine-coated 96-well plate. The day following plating was considered 1 day in vitro (DUV). Cells were maintained in a stable environment at 37° C., 95% humidity, and 5% CO2. A partial medium change was performed at 3 DIV. […]
[^3H]Dopamine uptake is used as a measure of the health and integrity of dopaminergic neurons in culture (Prochiantz et al., PNAS 76: 5387-5391, 1979). […] Briefly, cells treated with 6-OHDA in the presence and absence of 5-amino-anthra(9,1-cd)isothiazol-6-one were assessed in the uptake assay 22 hrs after exposure to 6-OHDA. […] Radioactivity was removed and the cultures were washed 3× with ice cold PBS. […]

The nature of data set [3]: Brain-Blood Plasma Distribution In Vivo. The arrangement: species or system Sprague-Dawley rats. As to conditions: rat. The method, then: 5-Amino-anthra(9,1-cd)isothiazol-6-one was administered intravenously (10 mg/kg) into the veins of Sprague-Dawley rats. After 2 hr, blood samples were obtained from the animals and their vascular systems were perfused with approximately 100 mL of saline to rid their brains of blood. The brains were removed from the animals, weighed, and homogenized in a 50 mL conical tube containing 10 equivalents (w/v) of methanol/saline (1:1) using a Tissue Tearer (Fischer Scientific). The homogenized material was extracted by adding 600 μL of cold methanol to 250 μL of brain homogenate vortexed for 30 sec and subjected to centrifugation for 5 min. After centrifugation, 600 μL of the resulting supernatant was transferred to a clean tube and evaporated at room temperature under reduced pressure to provide a pellet. […] The brain homogenate analysis samples, plasma analysis samples, and standard analysis samples were analyzed and compared using HPLC by injecting 100 μL of a sample onto a 5 μm C-18 Luna column (4.6 mm×150 mm, commercially available from Phenomenex of Torrance, Calif.) and eluting at 1 mL/min with a linear gradient of 30% aqueous acetonitrile containing 0.1% trifluoroacetic acid to 90% aqueous acetonitrile containing 0.1% trifluoroacetic acid over 8 minutes and holding at 90% aqueous acetonitrile containing 0.1% trifluoroacetic acid for 3 min. with absorbance detection at 450 nm. […]

`Nc1ccc2snc3c2c1C(=O)c1ccccc1-3` [5-amino-anthra(9,1-cd)isothiazol-6-one]: the “solubility in aqueous media” value in data set [1] is “limited solubility”. Further, the “protection of dopaminergic neurons ([3H]dopamine uptake)” value in data set [2] is “protects rat ventral mesencephalan neurons from the toxic effects of 6-OHDA”. Moreover, the brain-drug concentration result in data set [3] (10 mg/kg intravenously, 2 hr post-dose) is listed as “approximately 65 nmole/g”. In data set [3] (following intravenous administration), the blood-brain barrier crossing result is “crosses the blood-brain barrier to a significant extent”.
